Source: patent US9993494B2, “Compositions and methods for treating fibrotic disease” (eFFECTOR Therapeutics, Inc., priority 2014, dated 2018)

System: normal human lung fibroblasts
Assay: Ribosomal profiling: translational efficiency in TGFβ-treated fibroblasts
Assay type: cell-based
Method: Ribosomal profiling allows for measurement of changes in transcription and translation on a genome-wide basis accompanying TGFβ-dependent transformation of fibroblasts to myofibroblasts. Ribosomal profiles of the TGFβ-treated fibroblasts from Example 1 (about 6×10^6 cells/10 cm plate) were prepared and analyzed for changes in translational efficiencies with respect to potential disease-associated cellular changes accompanying this TGFβ-induced transformation.
Briefly, cells were washed with cold PBS supplemented with cycloheximide and lysed with 1× mammalian cell lysis buffer for 10 minutes on ice. Lysates were clarified by centrifugation for 10 minutes at 14,000 rpm and supernatants were collected. Cell lysates were processed to generate ribosomal protected fragments and total mRNA according to the instructions included with the ARTseq Ribosome Profiling Kit (Illumina, San Diego, Calif.). Sequencing of total RNA (RNA) and of ribosome-protected fragments of RNA (RPF) was carried out using RNA-Seq methodology according to the manufacturer's instructions (Illumina). To analyze the ribosomal profiles, RNA-Seq reads were processed with tools from the FASTX-Toolkit (fastq_quality_trimmer, fastx_clipper and fastx_trimmer). Unprocessed and processed reads were evaluated for a variety of quality measures using FastQC, and processed reads were mapped to the human genome using TopHat (see, e.g., Trapnell et al., Bioinformatics 25:1105, 2009). Gene-by-gene assessment of the number of fragments strictly and uniquely mapping to the coding region of each gene was conducted using HTSeq-count, a component of the HTSeq package. […] Genes with low counts in either RPF or RNA were excluded from differential analyses. Pathway and network analyses of differential data were conducted using Ingenuity Pathway Analysis (IPA).

Substance: TGFβ
- Log2 TE RPS6KA5 (ENSG00000100784, 5 replicates): −1.431
- Log2 TE CEP192 (ENSG00000101639, 5 replicates): −1.192
- change in translational profile of CEP192 caused by TGFβ (ENSG00000101639, Control vs. TGFβ): C (C = <−1.0 to −1.5)
- change in translational profile of AMMECR1 caused by TGFβ (ENSG00000101935, Control vs. TGFβ): D (D = <1.0 to 1.5)
- change in translational profile of PLP2 caused by TGFβ (ENSG00000102007, Control vs. TGFβ): D (D = <1.0 to 1.5)
- Log2 TE SGK3 (ENSG00000104205, 5 replicates): −1.011
- Log2 TE TRPA1 (ENSG00000104321, 5 replicates): −1.256
- Log2 TE EIF3E (ENSG00000104408, 5 replicates): 1.469
- change in translational profile of EIF3E caused by TGFβ (ENSG00000104408, Control vs. TGFβ): E (E = <1.5 to 2.5)
- Log2 TE EEF1D (ENSG00000104529, 5 replicates): 1.619
- change in translational profile of EEF1D caused by TGFβ (ENSG00000104529, Control vs. TGFβ): E (E = <1.5 to 2.5)
- change in translational profile of C19orf53 caused by TGFβ (ENSG00000104979, Control vs. TGFβ): D (D = <1.0 to 1.5)
- Log2 TE RPS16 (ENSG00000105193, 5 replicates): 1.989
- Log2 TE RPS19 (ENSG00000105372, 5 replicates): 1.55
- Log2 TE GLTSCR2 (ENSG00000105373, 5 replicates): 2.067
- change in translational profile of GLTSCR2 caused by TGFβ (ENSG00000105373, Control vs. TGFβ): E (E = <1.5 to 2.5)
- change in translational profile of RAB3D caused by TGFβ (ENSG00000105514, Control vs. TGFβ): B (B = <−1.5 to −2.5)
- Log2 TE RPL18A (ENSG00000105640, 5 replicates): 1.669
- change in translational profile of RPL18A caused by TGFβ (ENSG00000105640, Control vs. TGFβ): E (E = <1.5 to 2.5)
- Log2 TE COMP (ENSG00000105664, 5 replicates): 1.317
- change in translational profile of COMP caused by TGFβ (ENSG00000105664, Control vs. TGFβ): E (E = <1.5 to 2.5)
- Log2 TE GLCCI1 (ENSG00000106415, 5 replicates): −1.842
- change in translational profile of GLCCI1 caused by TGFβ (ENSG00000106415, Control vs. TGFβ): B (B = <−1.5 to −2.5)
- Log2 TE CORO2A (ENSG00000106789, 5 replicates): 1.212
- change in translational profile of CORO2A caused by TGFβ (ENSG00000106789, Control vs. TGFβ): E (E = <1.5 to 2.5)
- change in translational profile of GDF10 caused by TGFβ (ENSG00000107623, Control vs. TGFβ): C (C = <−1.0 to −1.5)
- Log2 TE RPL28 (ENSG00000108107, 5 replicates): 1.869
- change in translational profile of RPL28 caused by TGFβ (ENSG00000108107, Control vs. TGFβ): E (E = <1.5 to 2.5)
- Log2 TE RPL19 (ENSG00000108298, 5 replicates): 1.075
- change in translational profile of RPL19 caused by TGFβ (ENSG00000108298, Control vs. TGFβ): D (D = <1.0 to 1.5)
- Log2 TE RASD1 (ENSG00000108551, 5 replicates): 1.836
- change in translational profile of RASD1 caused by TGFβ (ENSG00000108551, Control vs. TGFβ): E (E = <1.5 to 2.5)
- Log2 TE SLC16A6 (ENSG00000108932, 5 replicates): −1.3497
- change in translational profile of NAT9 caused by TGFβ (ENSG00000109065, Control vs. TGFβ): D (D = <1.0 to 1.5)
- Log2 TE INPP4B (ENSG00000109452, 5 replicates): −1.569
- Log2 TE RPL34 (ENSG00000109475, 5 replicates): 1.608
- change in translational profile of RPL34 caused by TGFβ (ENSG00000109475, Control vs. TGFβ): E (E = <1.5 to 2.5)
- Log2 TE NEIL3 (ENSG00000109674, 5 replicates): −2.63
- Log2 TE CRYAB (ENSG00000109846, 5 replicates): 1.107
- change in translational profile of CRYAB caused by TGFβ (ENSG00000109846, Control vs. TGFβ): D (D = <1.0 to 1.5)
- Log2 TE RPS13 (ENSG00000110700, 5 replicates): 1.539
- Log2 TE KRT18 (ENSG00000111057, 5 replicates): 1.811
- Log2 TE GAPDH (ENSG00000111640, 5 replicates): 1.263
- change in translational profile of GAPDH caused by TGFβ (ENSG00000111640, Control vs. TGFβ): E (E = <1.5 to 2.5)
- Log2 TE C12orf57 (ENSG00000111678, 5 replicates): 1.173
- change in translational profile of C12orf57 caused by TGFβ (ENSG00000111678, Control vs. TGFβ): D (D = <1.0 to 1.5)
- Log2 TE BVES (ENSG00000112276, 5 replicates): 1.173
- Log2 TE RPS12 (ENSG00000112306, 5 replicates): 1.642
- change in translational profile of MDFI caused by TGFβ (ENSG00000112559, Control vs. TGFβ): A (A = <−2.5)
- Log2 TE HBEGF (ENSG00000113070, 5 replicates): 1.088
- change in translational profile of HBEGF caused by TGFβ (ENSG00000113070, Control vs. TGFβ): D (D = <1.0 to 1.5)
- Log2 TE THG1L (ENSG00000113272, 5 replicates): 1.155
- Log2 TE RPL24 (ENSG00000114391, 5 replicates): 1.304
- change in translational profile of RPL24 caused by TGFβ (ENSG00000114391, Control vs. TGFβ): E (E = <1.5 to 2.5)
- Log2 TE EEF1B2 (ENSG00000114942, 5 replicates): 1.434
- change in translational profile of EEF1B2 caused by TGFβ (ENSG00000114942, Control vs. TGFβ): E (E = <1.5 to 2.5)
- Log2 TE IFIH1 (ENSG00000115267, 5 replicates): −1.416
- change in translational profile of IFIH1 caused by TGFβ (ENSG00000115267, Control vs. TGFβ): B (B = <−1.5 to −2.5)
- Log2 TE RPS15 (ENSG00000115268, 5 replicates): 1.3
